According to publication PMC7076710, “Synthesis, Identification, and Structure–Activity Relationship Analysis of GATA4 and NKX2-5 Protein–Protein Interaction Modulators” (Journal of Medicinal Chemistry, 2019):

Target: T1, GATA4–NKX2-5 transcriptional synergy (Mus musculus, UniProt P42582+Q08369)
T1 construct: expressed in transfected cells; host or cells: COS-1
Assay: GATA4–NKX2-5 transcriptional synergy luciferase reporter assay (3xNKE reporter, COS-1 cells)
Type: cell-based
Protocol: To screen compounds for the GATA4–NKX2-5 interaction, we have developed a luciferase reporter assay based on their property to activate gene transcription synergistically through the NKX2-5 binding site on DNA.[28] In this assay, we transfected mammalian COS-1 cells with protein expression vectors for GATA4 and NKX2-5 proteins together with artificial luciferase reporter vector containing three high affinity binding sites for NKX2-5 (NKE). […] All 257 compounds were tested in two concentrations, 3 and 10 μM. Compounds either inhibited, enhanced, or had no effect on the GATA4–NKX2-5 transcriptional synergy. To investigate the selectivity of the active compounds, we tested their effects on NKX2-5 transcriptional activity by using the same luciferase reporter vector as in transcriptional synergy assay with three NKE sites (Figure 3B). Furthermore, we used GATA luciferase reporter assay to examine if compounds have an effect on GATA4 transcriptional activity. In this assay, we cotransfected the cells with a GATA4 protein expression vector and a reporter vector with tandem GATA4 binding sites (Figure 3C). Previously we have reported that compound 1 inhibited the GATA4–NKX2-5 transcriptional synergy at micromolar concentrations (IC50 = 3 μM).[29]
The plasmids expressing mouse GATA4 protein, pMT2-GATA4, and empty pMT2 were gifts from D. B. Wilson (Department of Pediatrics, St. Louis Children’s Hospital, St. Louis, MO).[44] The plasmids expressing mouse NKX2-5 protein, pMT2-NKX2-5, have been described earlier.[28] The luciferase reporter plasmid used in GATA4–NKX2-5 transcriptional synergy assay and NKX transcriptional assay, pGL3-3xHA, contains three high affinity binding sites for NKX2-5.[28] The luciferase reporter plasmid used in GATA transcriptional assay, NP-112, contains tandem GATA-sites and minimal promoter of rat brain natriuretic peptide (BNP) gene.[45] The pGL3-BNP luciferase reporter containing −534/+4 bp rat BNP proximal promoter described previously was used in hypertrophy assay.[46]
The primary screening assay of compounds’ effect on GATA4–NKX2-5 transcriptional synergy and COS-1 cell culturing has been described earlier.[33] […] (Kinnunen et al., unpublished observation). Briefly, COS-1 cells were seeded at 14 000 cells/well in Isoplate-96 microplates (PerkinElmer, Turku, Finland) and grown overnight. The cells were transfected with the luciferase reporter plasmid pGL3-3xHA 100 ng/well and equal amounts of expression plasmids pMT2-GATA4 and pMT2-NKX2-5 total 50 ng/well. To verify the synergistic effect, the cells were transfected with pMT2-GATA4 or pMT2-NKX2-5 25 ng/well, and the total DNA concentration was adjusted to 50 ng/well with empty pMT2 plasmid. In NKX2-5 and GATA4 luciferase reporter assays, the cells were transfected with reporter plasmid pGL3-3xHA or NP-112 (100 ng/well) and expression plasmid pMT2-NKX2-5 or pMT2-GATA4 (25 ng/well). The ratio of DNA/transfection reagent (Fugene 6, Promega) was 1:3 in all assays. The transfections were performed in serum and antibiotics free media for 6 h. The cells were treated with compounds or vehicle (0.1% DMSO) for 24 h, and the luminescence was measured using neolite Reporter Gene Assay System (PerkinElmer, Turku, Finland) and Victor2 plate reader (PerkinElmer, Turku, Finland).
Raw luciferase data were analyzed in Excel, and clear outliers were removed from triplicates by using the Grubb’s test. Data analysis was performed using R.[49] The luciferase data were first normalized on the basis of the combined mean value of controls. For data visualization and creation of figures, the following R packages were used: ggplot2, cowplot, RColorBrewer, and pheatmap. The heatmaps of the toxicity data were produced with GraphPad Prism 7.00 (GraphPad Software, La Jolla, CA). Statistical significance of luciferase reporter assay data was evaluated by randomized block analysis of variance followed by Dunnett’s post hoc test. […]

[1] = 3 µM compound, GATA4–NKX2-5 transcriptional synergy reporter, COS-1 cells
[2] = COS-1, compound at 3 µM, luciferase reporter activity, % of control
[3] = COS-1, compound 3 µM, luciferase reporter activity, spread in separate STDEV column
[4] = COS-1, compound 10 µM, luciferase reporter activity, spread in separate STDEV column
[5] = 10 µM compound, GATA4–NKX2-5 transcriptional synergy reporter, COS-1 cells
[6] = COS-1, 3 µM, luciferase reporter activity, % of control
[7] = COS-1, 10 µM, luciferase reporter activity, % of control
[8] = COS-1, compound at 10 µM, luciferase reporter activity, % of control
[9] = COS-1, GATA4-NKX2-5 transcriptional synergy luciferase reporter assay, compound at 3 µM
[10] = COS-1, GATA4-NKX2-5 transcriptional synergy luciferase reporter assay, compound at 10 µM
[11] = COS-1, compound 3 µM, luciferase reporter activity relative to control
[12] = COS-1, compound 10 µM, luciferase reporter activity relative to control

T1 sequence (Q08369 whole entry): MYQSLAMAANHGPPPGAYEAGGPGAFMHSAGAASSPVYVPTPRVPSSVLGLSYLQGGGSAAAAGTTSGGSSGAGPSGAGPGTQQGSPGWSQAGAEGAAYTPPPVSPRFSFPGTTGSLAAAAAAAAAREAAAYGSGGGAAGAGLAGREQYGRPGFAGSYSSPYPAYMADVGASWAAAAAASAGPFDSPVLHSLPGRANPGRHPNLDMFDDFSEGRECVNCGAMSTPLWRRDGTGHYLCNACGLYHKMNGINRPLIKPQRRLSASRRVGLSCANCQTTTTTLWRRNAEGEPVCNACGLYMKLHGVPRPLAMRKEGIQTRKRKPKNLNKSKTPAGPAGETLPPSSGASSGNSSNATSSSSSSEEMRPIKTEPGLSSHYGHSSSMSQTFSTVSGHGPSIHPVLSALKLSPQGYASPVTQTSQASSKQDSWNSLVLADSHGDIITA
T1 sequence (P42582 whole entry): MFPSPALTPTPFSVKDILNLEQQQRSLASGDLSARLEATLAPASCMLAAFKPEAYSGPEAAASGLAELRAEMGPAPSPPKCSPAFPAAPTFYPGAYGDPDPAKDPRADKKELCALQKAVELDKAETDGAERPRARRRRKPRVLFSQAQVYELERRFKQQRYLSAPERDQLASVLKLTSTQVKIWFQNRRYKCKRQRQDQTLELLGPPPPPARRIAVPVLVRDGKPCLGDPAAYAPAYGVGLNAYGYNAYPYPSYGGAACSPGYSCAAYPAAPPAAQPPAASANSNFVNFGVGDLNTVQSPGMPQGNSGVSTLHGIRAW

CCN(CC)c1ccc(NC(=O)c2c[nH]nc2-n2cnnn2)cc1 [Compound 47g, N-[4-(Diethylamino)phenyl]-3-(1H-tetrazol-1-yl)-1H-pyrazole-4-carboxamide]
activity at 3 µM [1]: 102%

CCN(CC)c1ccc(NC(=O)c2c(-c3c(Cl)ccc([N+](=O)[O-])c3Cl)noc2C)cc1 [Compound 39f, 3-(2,6-Dichloro-3-nitrophenyl)-N-[4-(diethylamino)phenyl]-5-methylisoxazole-4-carboxamide]
activity at 3 µM [2]: 76.3%

Cc1onc(-c2ccccc2)c1C(=O)Nc1ccc2c(c1)C(=O)CC2 [Compound 4a, 5-Methyl-N-(3-oxo-2,3-dihydro-1H-inden-5-yl)-3-phenylisoxazole-4-carboxamide]
activity at 3 µM [3]: 103%

N#Cc1ccc(NC(=O)c2cc(-c3ccncc3)[nH]n2)cc1 [SI118]
activity at 3 µM [3]: 96.6%
activity at 10 µM [4]: 102%

O=C(Nc1ccc2oc(-c3ccccc3)cc(=O)c2c1)c1snnc1-c1ccccc1 [SI104]
activity at 3 µM [1]: 103%
activity at 10 µM [5]: 94.9%

CCN(CC)c1ccc(NC(=O)c2c(-c3ccccc3[N+](=O)[O-])noc2C)cc1 [Compound 39h]
activity at 3 µM [2]: 89.5%

CCN(c1ccc(NC(=O)c2c(-c3ccccc3)noc2C)cc1[N+](=O)[O-])C(C)C [Compound 8, N-[4-[Ethyl(isopropyl)amino]-3-nitrophenyl]-5-methyl-3-phenylisoxazole-4-carboxamide]
activity at 3 µM [2]: 76.3%

Cc1onc(-c2ccccc2)c1COCc1ccc(OC(F)(F)F)cc1 [SI49]
activity at 3 µM [6]: 92.6%
activity at 10 µM [7]: 82.9%

Cc1onc(-c2ccccc2)c1C(=O)N(N)S(=O)(=O)c1ccccc1 [SI27]
activity at 3 µM [2]: 106%
activity at 10 µM [8]: 113%

CCOC(=O)c1cc(NC(=O)c2cc(-c3ccccc3)no2)c[nH]1 [SI126]
activity at 3 µM [9]: 100%
activity at 10 µM [10]: 101%

CCN(c1ccc(NC(=O)c2c(C)noc2-c2snnc2C)cc1)C(C)C [Compound 62]
activity at 3 µM [1]: 31%

CCN(CC)c1ccc(/N=C/c2onc(-c3ccccc3)c2C(=O)OC)cc1 [Compound 51]
activity at 3 µM [2]: 81.3%
activity at 10 µM [8]: 93.5%

CCN(CC)c1ccc(NC(=O)c2csc3nnsc23)cc1 [Compound 47v]
activity at 3 µM [1]: 95.9%
activity at 10 µM [5]: 132%

CCN(CC)c1ccc(NCc2c[nH]nc2-c2ccc(F)cc2)cc1 [SI81]
activity at 3 µM [1]: 98.1%
activity at 10 µM [5]: 82.3%

CCN(CC)c1ccc(NC(=O)c2c(SC)nsc2SC)cc1 [Compound 47w]
activity at 3 µM [1]: 115%
activity at 10 µM [5]: 112%

Cc1onc(-c2ccccc2)c1NCc1ccc(N(C)C)cc1 [SI109]
activity at 3 µM [2]: 87.1%
activity at 10 µM [8]: 89.9%

CC[N+](C)(c1ccc(NC(=O)c2c(-c3ccccc3)noc2C)cc1)C(C)C (centres unmarked) [Compound 7, N-Ethyl-N-isopropyl-N-methyl-4-(5-methyl-3-phenylisoxazole-4-carboxamido)benzenaminium Iodide]
activity at 3 µM [2]: 88.4%

CN(C)c1ccc(/C=N/c2c(-c3ccccc3)nc3ncccn23)cc1 [SI46]
activity at 3 µM [2]: 98.9%
activity at 10 µM [8]: 102%

Cc1onc(-c2ccccc2)c1C(=O)Nc1ccc(C(=O)Nc2ccccc2)cc1 [SI11]
activity at 3 µM [2]: 80.1%
activity at 10 µM [8]: 98.5%

Cc1onc(-c2ccccc2)c1NC(=O)NC1CCCCC1 [SI25]
activity at 3 µM [2]: 91.2%
activity at 10 µM [8]: 118%

CCN(CC)c1ccc(NC(=O)c2c(C)noc2-c2cc(CCOc3ccccn3)on2)cc1 [SI74]
activity at 3 µM [3]: 97.4%
activity at 10 µM [4]: 104%

Cc1onc(-c2ccccc2)c1C(=O)Nc1ccc(Nc2ccccc2)cc1 [SI5]
activity at 3 µM [6]: 105%
activity at 10 µM [7]: 89.1%

Cc1onc(-c2ccccc2)c1COc1ccc(C(=O)O)cc1 [Compound 38, 4-[(5-Methyl-3-phenylisoxazol-4-yl)methoxy]benzoic Acid]
activity at 3 µM [11]: 102%

CCC1(C)Oc2ccc(NC(=O)c3cnoc3-c3ccc(C)o3)cc2O1 (centres unmarked) [SI125]
activity at 3 µM [9]: 106%
activity at 10 µM [10]: 91.7%

CCc1cc(-c2onc(C)c2C(=O)Nc2ccc(N(CC)CC)cc2)no1 [SI75]
activity at 3 µM [3]: 97.5%
activity at 10 µM [4]: 88.8%

CCN(CC)c1ccc(/N=C/c2c(-c3ccccc3)noc2C)cc1 [Compound 19, (E)-N^1,N^1-Diethyl-N^4-[(5-methyl-3-phenylisoxazol-4-yl)methylene]benzene-1,4-diamine]
activity at 3 µM [1]: 102%
activity at 10 µM [5]: 99.7%

CCN(CC)c1ccc(CN(C(=O)Nc2ccc(C#N)cc2)c2c(-c3ccccc3)noc2C)cc1 [Compound 30d]
activity at 3 µM [11]: 90%

CCN(CC)c1ccc(NC(=O)c2ccoc2CCc2cccs2)cc1 [Compound 47i]
activity at 3 µM [1]: 89%
activity at 10 µM [5]: 103%

COc1ccc(NC(=O)c2c(-c3ccc(Br)s3)noc2C)cc1Cl [SI115]
activity at 3 µM [3]: 92%
activity at 10 µM [4]: 91.9%

COC(=O)c1c(-c2ccccc2)nnn1CC1CCCO1 (centres unmarked) [SI61]
activity at 3 µM [11]: 101%
activity at 10 µM [12]: 100%

Cc1onc(-c2ccccc2)c1NCc1ccc(N(CCO)CCO)cc1 [SI43]
activity at 3 µM [3]: 109%
activity at 10 µM [4]: 99.7%

CCN(CCO)c1ccc(N(C)C(=O)c2c(-c3ccccc3)noc2C)cc1 [SI36]
activity at 3 µM [2]: 87%
activity at 10 µM [8]: 117%

CCCCCc1ccc(C(=S)Nc2c(-c3ccccc3)noc2C)cc1 [SI35]
activity at 3 µM [11]: 89.2%
activity at 10 µM [12]: 75.8%

O=C(Nc1ccc2oc(-c3ccccc3)cc(=O)c2c1)c1cnsc1 [SI100]
activity at 3 µM [11]: 112%
activity at 10 µM [12]: 117%

CCN(CC)c1ccc(NCc2c[nH]nc2C2CCCCC2)cc1 [SI85]
activity at 3 µM [1]: 88.4%
activity at 10 µM [5]: 82.1%

Cc1noc(-c2ccccc2)c1C(=O)Nc1ccc2oc(-c3ccccc3)cc(=O)c2c1 [SI105]
activity at 3 µM [11]: 70.3%
activity at 10 µM [12]: 44.1%

CCN(CC)c1ccc(NC(=O)c2c(C)noc2-c2cc(-c3ccco3)on2)cc1 [SI76]
activity at 3 µM [3]: 108%
activity at 10 µM [4]: 100%

Cc1onc(-c2ccccc2)c1C(=O)Nc1ccc(OCC(F)(F)F)c(Cl)c1 [SI13]
activity at 3 µM [3]: 89.2%
activity at 10 µM [4]: 71.6%

Cc1ccc(NC(=O)c2c(-c3cc(C)on3)noc2C)cc1 [SI133]
activity at 3 µM [9]: 88.6%
activity at 10 µM [10]: 86.3%

CCC(=O)c1ccc(OCc2c(C)noc2-c2ccccc2)cc1 [SI47]
activity at 3 µM [11]: 89.3%
activity at 10 µM [12]: 95.3%

Cc1onc(-c2ccc(Br)s2)c1C(=O)NC1CC1 [SI117]
activity at 3 µM [3]: 90%
activity at 10 µM [4]: 105%

Cc1cc(NC(=O)c2c(-c3ccccc3)noc2C)ncc1[N+](=O)[O-] [SI10]
activity at 3 µM [2]: 116%
activity at 10 µM [8]: 78.3%

Cc1onc(-c2ccccc2)c1C(=O)Nc1ccc(C(=O)OCC#N)cc1 [Compound 10a, Cyanomethyl 4-(5-Methyl-3-phenylisoxazole-4-carboxamido)benzoate]
activity at 3 µM [1]: 95%

CN(C)c1ccc(C=Nc2cc(-c3ccccc3)nn2-c2ccccc2)cc1 [SI93]
activity at 3 µM [2]: 93.3%
activity at 10 µM [8]: 107%

Nc1c(/N=N/c2ccc([N+](=O)[O-])cc2)c(-c2ccccc2)nn1-c1ccccc1 [SI97]
activity at 3 µM [6]: 73.3%
activity at 10 µM [7]: 61.2%
